Results published in patent US20150045266A1, “IONIC LIQUID AS LUBRICATING OIL BASE STOCKS, COBASE STOCKS AND MULTIFUNCTIONAL FUNCTIONAL FLUIDS” (ExxonMobil Research and Engineering Company, priority 2012, published 2015).

experiment: Solubility in di(tridecyl) adipate ester base stock (Esterex A51); type: physicochemical; conditions: Group V ester base stock
From the text: The ionic liquids of Examples 5, 7, 9, 11 and 13 have good viscosity index.

Solubility in di(tridecyl) adipate ester base stocks, highly soluble:
CCCCCCCCCCn1cc[n+](C)c1 [Example 5, 1-methyl-3-decylimidazolium bis(trifluoromethanesulfonyl)imide]
CCCCCCCCCCCCCCCCn1cc[n+](C)c1 [Example 7, 1-methyl-3-hexadecylimidazolium bis(trifluoromethanesulfonyl)imide]
CCCCCCCCCC[n+]1ccn(CCCC)c1 [Example 9, 1-butyl-3-decylimidazolium bis(trifluoromethanesulfonyl)imide]
CCCCCCCCCCCCCCCC[n+]1ccn(CCCC)c1 [Example 11, 1-butyl-3-hexadecylimidazolium bis(trifluoromethanesulfonyl)imide]
CCCCCCCCCC[n+]1ccn(Cc2ccccc2)c1 [Example 13, 1-benzyl-3-decylimidazolium bis(trifluoromethanesulfonyl)imide]
